In assay [1] the target is T1, NS5B from the BK strain (genotype 1b) (Hepatitis C virus genotype 1b, UniProt P26663).
T1 construct: NS5B from the BK strain (genotype 1b) is expressed in E. coli as a protein in which the 21 C-terminal amino acids are replaced; made in house; host or cells: E. coli
Nature of the assay: Hepatitis C polymerase inhibition, NS5B BK strain, 33P-GTP filter assay. In kind it is biochemical. As to conditions: Table 1B; NS5B BK strain; read-out: BK IC50. In outline:
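Radiolabelled RNA synthesis was measured by filter capture and scintillation counting after EDTA stop. His-tagged, C-terminally truncated (Δ21) genotype 1b BK NS5B from E. coli, pre-exposed to compound for 15 min, copied a self-primed RNA template (~3 nM) with α-[33P]-GTP for 2 h at room temperature.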

Assay [2] addresses BB7 (RNA-dependent RNA polymerase hepatitis C virus protein sequence derived from HCV replicon) (Hepatitis C virus genotype 1b, UniProt Q9WMX2). In words: Hepatitis C polymerase inhibition, BB7 sequence. In kind it is biochemical. As to conditions: Table 1B.

Molecules are shown by their SMILES. Where only a bound is given, the exact number is not on record here.

T1 sequence (P26663 2420-2989): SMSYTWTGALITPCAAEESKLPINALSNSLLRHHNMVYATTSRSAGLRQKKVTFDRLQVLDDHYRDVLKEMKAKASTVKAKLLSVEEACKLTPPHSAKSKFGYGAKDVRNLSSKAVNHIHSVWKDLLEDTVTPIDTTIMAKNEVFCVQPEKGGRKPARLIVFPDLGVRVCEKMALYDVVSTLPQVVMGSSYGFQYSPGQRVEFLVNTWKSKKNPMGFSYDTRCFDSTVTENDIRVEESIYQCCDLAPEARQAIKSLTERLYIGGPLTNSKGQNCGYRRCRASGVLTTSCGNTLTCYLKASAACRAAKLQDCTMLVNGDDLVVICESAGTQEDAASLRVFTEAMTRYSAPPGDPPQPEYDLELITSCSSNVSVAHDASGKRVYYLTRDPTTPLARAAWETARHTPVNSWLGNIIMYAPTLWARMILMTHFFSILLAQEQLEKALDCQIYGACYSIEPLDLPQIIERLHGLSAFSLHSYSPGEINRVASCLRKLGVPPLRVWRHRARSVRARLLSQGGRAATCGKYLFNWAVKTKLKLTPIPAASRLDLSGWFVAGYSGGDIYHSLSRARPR
BB7 (RNA-dependent RNA polymerase hepatitis C virus protein sequence derived from HCV replicon), sequence (Q9WMX2 2420-3010): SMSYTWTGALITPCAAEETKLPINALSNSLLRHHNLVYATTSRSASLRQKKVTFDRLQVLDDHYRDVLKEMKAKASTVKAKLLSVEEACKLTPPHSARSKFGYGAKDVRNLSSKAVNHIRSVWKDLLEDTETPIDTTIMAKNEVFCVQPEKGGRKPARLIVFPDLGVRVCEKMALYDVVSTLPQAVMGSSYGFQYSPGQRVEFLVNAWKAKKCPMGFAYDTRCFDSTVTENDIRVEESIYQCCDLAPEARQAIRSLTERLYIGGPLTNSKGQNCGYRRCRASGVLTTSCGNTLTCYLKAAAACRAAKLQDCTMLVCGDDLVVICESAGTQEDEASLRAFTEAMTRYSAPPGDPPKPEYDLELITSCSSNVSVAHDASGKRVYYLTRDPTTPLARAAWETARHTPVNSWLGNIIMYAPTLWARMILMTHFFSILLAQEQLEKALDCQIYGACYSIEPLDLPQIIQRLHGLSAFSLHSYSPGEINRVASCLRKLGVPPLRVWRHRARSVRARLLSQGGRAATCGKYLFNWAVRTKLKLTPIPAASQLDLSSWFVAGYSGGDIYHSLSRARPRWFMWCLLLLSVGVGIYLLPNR

For `O=C(O)CC1(C2CCC2)OCCc2c1[nH]c1c(Cl)ccc(C(F)(F)F)c21` (stereo not shown) [Example 267, (8-chloro-1-cyclobutyl-5-trifluoromethyl-1,3,4,9-tetrahydropyrano[3,4-b]indol-1-yl)acetic acid], the IC50 in assay [1] is 0.66 µM; in assay [2] it was 2.3 µM.
The matching figures for `CCCC1(CC(=O)O)OCCc2c1[nH]c1c(F)ccc(C(F)(F)F)c21` (stereo not shown) [Example 268, (8-fluoro-1-propyl-5-trifluoromethyl-1,3,4,9-tetrahydropyrano[3,4-b]indol-1-yl)acetic acid]: 4.6 µM and 6.1 µM.
The matching figures for `O=C(O)CC1(C2CCC2)OCCc2c1[nH]c1c(F)ccc(C(F)(F)F)c21` (stereo not shown) [Example 269, (1-cyclobutyl-8-fluoro-5-trifluoromethyl-1,3,4,9-tetrahydropyrano[3,4-b]indol-1-yl)acetic acid]: 9.4 µM and 9.4 µM.
The matching figures for `O=C(O)CC1(C2CCCC2)OCCc2c1[nH]c1c(F)ccc(C(F)(F)F)c21` (stereo not shown) [Example 270, (1-cyclopentyl-8-fluoro-5-trifluoromethyl-1,3,4,9-tetrahydropyrano[3,4-b]indol-1-yl)acetic acid]: 20 µM and 17 µM.
Take `CCCC1(CC(=O)O)OCCc2c1[nH]c1c(C(F)(F)F)ccc(C(F)(F)F)c21` (stereo not shown) [Example 271, [5,8-bis(trifluoromethyl)-1-propyl-1,3,4,9-tetrahydropyrano[3,4-b]indol-1-yl]acetic acid]: the half-inhibitory concentration (IC50) in assay [1] was found to be 2.7 µM; in assay [2], 3.5 µM.
The matching figures for `CCCC1(CC(=O)O)OCCc2c1[nH]c1c(C)ccc(C(F)(F)F)c21` (stereo not shown) [Example 272, (8-methyl-1-propyl-5-trifluoromethyl-1,3,4,9-tetrahydropyrano[3,4-b]indol-1-yl)acetic acid]: 0.5 µM and 1.5 µM.
`CCCCC1(CC(=O)O)OCCc2c1[nH]c1c(C)ccc(C(F)(F)F)c21` (stereo not shown) [Example 273, (8-methyl-1-butyl-5-trifluoromethyl-1,3,4,9-tetrahydropyrano[3,4-b]indol-1-yl)acetic acid]: the IC50 in assay [1] was 1.4 µM; in assay [2], 6.5 µM.
As to `Cc1ccc(C(F)(F)F)c2c3c([nH]c12)C(CC(=O)O)(C1CC1)OCC3` (stereo not shown) [Example 274, (1-cyclopropyl-8-methyl-5-trifluoromethyl-1,3,4,9-tetrahydropyrano[3,4-b]indol-1-yl)acetic acid], the results for the half-maximal inhibitory concentration (IC50) in assay [1] and in assay [2] were 9.3 µM and above 26 µM, respectively.
The matching figures for `Cc1ccc(C(F)(F)F)c2c3c([nH]c12)C(CC(=O)O)(C1CCC1)OCC3` (stereo not shown) [Example 275, (1-cyclobutyl-8-methyl-5-trifluoromethyl-1,3,4,9-tetrahydropyrano[3,4-b]indol-1-yl)acetic acid]: 1.2 µM and 3.5 µM.
Consider `CCCC1(CC(=O)O)OCCc2c1[nH]c1c(C#N)ccc(C(F)(F)F)c21` (stereo not shown) [Example 276, (8-cyano-1-propyl-5-trifluoromethyl-1,3,4,9-tetrahydropyrano[3,4-b]indol-1-yl)acetic acid], for which the IC50 in assay [1] is 1.3 µM; in assay [2], 1.7 µM.
Turning to `CCC(C)C1(CC(=O)O)OCCc2c1[nH]c1c(C(N)=O)ccc(C(F)(F)F)c21` [Example 278, (1R*,10S)-[8-aminocarbonyl-1-(1-methylpropyl)-5-trifluoromethyl-1,3,4,9-tetrahydropyrano[3,4-b]indol-1-yl]acetic acid], the IC50 in assay [1] is 15 µM; in assay [2], 23 µM.
For `Cc1ccc(C#N)c2c3c([nH]c12)C(CCC(F)(F)F)(CC(=O)O)OCC3` (stereo not shown) [Example 280, [5-cyano-8-methyl-1-(3,3,3-trifluoropropyl)-1,3,4,9-tetrahydropyrano[3,4-b]indol-1-yl]acetic acid], in that order: 0.8 µM and 2 µM.
For `COCC1(CC(=O)O)OCCc2c1[nH]c1c(C)ccc(C#N)c21` (stereo not shown) [Example 281, (5-cyano-1-methoxymethyl-8-methyl-1,3,4,9-tetrahydropyrano[3,4-b]indol-1-yl)acetic acid], in that order: above 30 µM and above 30 µM.
The matching figures for `CSCC1(CC(=O)O)OCCc2c1[nH]c1c(C)ccc(C#N)c21` (stereo not shown) [Example 282, (5-cyano-1-methylthiomethyl-8-methyl-1,3,4,9-tetrahydropyrano[3,4-b]indol-1-yl)acetic acid]: 13 µM and 22 µM.
As to `Cc1ccc(C#N)c2c3c([nH]c12)C(CC(=O)O)(C1CC1)OCC3` (stereo not shown) [Example 283, (5-cyano-1-cyclopropyl-8-methyl-1,3,4,9-tetrahydropyrano[3,4-b]indol-1-yl)acetic acid], the half-inhibitory concentration (IC50) in assay [1] is 15 µM; in assay [2], above 27 µM.
The matching figures for `Cc1ccc(C#N)c2c3c([nH]c12)C(CC(=O)O)(C1CCC1)OCC3` (stereo not shown) [Example 284, (5-cyano-1-cyclobutyl-8-methyl-1,3,4,9-tetrahydropyrano[3,4-b]indol-1-yl)acetic acid]: 1 µM and 2.3 µM.
As to `Cc1ccc(C#N)c2c3c([nH]c12)[C@@](CC(=O)O)(C1CCC1)OCC3` [Example 285, (1R)-(5-cyano-1-cyclobutyl-8-methyl-1,3,4,9-tetrahydropyrano[3,4-b]indol-1-yl)acetic acid], the figures for the half-maximal inhibitory concentration (IC50) in assay [1] and in assay [2] were 0.4 µM and 1.1 µM, respectively.
The matching figures for `Cc1ccc(C#N)c2c3c([nH]c12)[C@](CC(=O)O)(C1CCC1)OCC3` [Example 286, (1S)-(5-cyano-1-cyclobutyl-8-methyl-1,3,4,9-tetrahydropyrano[3,4-b]indol-1-yl)acetic acid]: above 30 µM and above 30 µM.
For `Cc1ccc(C#N)c2c3c([nH]c12)C(CC(=O)O)(C1CCCC1)OCC3` (stereo not shown) [Example 287, (5-cyano-1-cyclopentyl-8-methyl-1,3,4,9-tetrahydropyrano[3,4-b]indol-1-yl)acetic acid], in that order: 5.1 µM and 6.5 µM.
The matching figures for `Cc1ccc(C#N)c2c3c([nH]c12)C(CC(=O)O)(CC1CCCC1)OCC3` (stereo not shown) [Example 288, (5-cyano-1-cyclopentylmethyl-8-methyl-1,3,4,9-tetrahydropyrano[3,4-b]indol-1-yl)acetic acid]: 22 µM and 18 µM.
Turning to `CC[C@H](C)[C@@]1(CC(=O)O)OCCc2c1[nH]c1c(C)ccc(C#N)c21` [Example 292, (1R,10S)-[5-cyano-8-methyl-1-(1-methylpropyl)-1,3,4,9-tetrahydropyrano[3,4-b]indol-1-yl]acetic acid], the half-maximal inhibitory concentration (IC50) came out at 0.13 µM in assay [1] and 0.26 µM in assay [2].
For `CC[C@H](C)[C@]1(CC(=O)O)OCCc2c1[nH]c1c(C)ccc(C#N)c21` [Example 293, (1S,10S)-[5-cyano-8-methyl-1-(1-methylpropyl)-1,3,4,9-tetrahydropyrano[3,4-b]indol-1-yl]acetic acid], in that order: above 30 µM and above 30 µM.
For `CCCC1(CC(=O)O)OCCc2c1[nH]c1c(CC)ccc(C#N)c21` (stereo not shown) [Example 295, (5-cyano-8-ethyl-1-propyl-1,3,4,9-tetrahydropyrano[3,4-b]indol-1-yl)acetic acid], in that order: 3.6 µM and 3.1 µM.

The values above are taken from patent publication US7217730B2, “Method for the use of pyranoindole derivatives to treat infection with Hepatitis C virus” (Wyeth, priority 2002, dated 2007).
